Literature values as cited in patent US5659037A, “Process for preparing chiral tetracyclic dopaminergic compounds” (Abbott Laboratories, priority 1995, dated 1997).

Tests used:
dopamine D1 = conditions: Nichols U.S. Pat. No. 5,047,536; WO 93/24462; Brewster et al. (1990)
adenylate cyclase = conditions: Knoerzer et al., J. Med. Chem., 37:2453-60 (1994)
[1] = Seeman, Pharmacol. Rev. 32:2:229 (1980)

## Cc1ccc2c(c1)[C@@H]1c3cc(O)c(O)cc3CC[C@H]1NC2 (relative stereo) [2-methyl derivative]
Dopamine D1
  dopamine D1 agonist activity: potent and selective dopamine D1 agonists

## Oc1cc2c(cc1O)[C@@H]1c3ccccc3CN[C@H]1CC2 (relative stereo) [dihydrexidine, trans-10,11-dihydroxy-5,6,6a,7,8,12b-hexahydrobenzo[a]phenanthridine]
Dopamine D1
  dopamine D1 agonist activity: potent and selective dopamine D1 agonists

## Oc1cc2c(cc1O)[C@@H]1c3ccccc3CN[C@H]1CC2 [6aS,12bR-(-)-isomer]
Adenylate cyclase
  activity in an adenylate cyclase assay: inactive

## NC1CCc2cc(O)c(O)cc2C1 (stereo not shown) [ADTN, 2-amino-6,7-dihydroxy-1,2,3,4-tetrahydronaphthalene]
[1]
  dopamine agonist activity: greatest activity in its chiral (R)-(+)-isomeric form
